Source: patent US9481670B2, “Triazine compounds” (Sphaera Pharma PTE. Ltd., priority 2011, dated 2016)

Target: T1, PI3K alpha (Homo sapiens, UniProt P42336)
T1 construct: purchased Millipore Upstate
Assay: P110 Alpha TR-FRET Assay (PI3K alpha kinase assay, HTRF Transcreener ADP Assay)
Assay type: biochemical
Settings: PI3K (WT)
Procedure, shortened: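 Enzyme (50 ng) and compound were preincubated 20 min in HEPES pH 7.5 buffer containing MgCl2, DTT and vanadate before 10 μM ATP plus 5 μM PIP2 substrate was added for 20 min. ADP produced was quantified by TR-FRET (ADP-d2, anti-ADP cryptate, 1 h).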

T1 sequence (P42336 whole entry): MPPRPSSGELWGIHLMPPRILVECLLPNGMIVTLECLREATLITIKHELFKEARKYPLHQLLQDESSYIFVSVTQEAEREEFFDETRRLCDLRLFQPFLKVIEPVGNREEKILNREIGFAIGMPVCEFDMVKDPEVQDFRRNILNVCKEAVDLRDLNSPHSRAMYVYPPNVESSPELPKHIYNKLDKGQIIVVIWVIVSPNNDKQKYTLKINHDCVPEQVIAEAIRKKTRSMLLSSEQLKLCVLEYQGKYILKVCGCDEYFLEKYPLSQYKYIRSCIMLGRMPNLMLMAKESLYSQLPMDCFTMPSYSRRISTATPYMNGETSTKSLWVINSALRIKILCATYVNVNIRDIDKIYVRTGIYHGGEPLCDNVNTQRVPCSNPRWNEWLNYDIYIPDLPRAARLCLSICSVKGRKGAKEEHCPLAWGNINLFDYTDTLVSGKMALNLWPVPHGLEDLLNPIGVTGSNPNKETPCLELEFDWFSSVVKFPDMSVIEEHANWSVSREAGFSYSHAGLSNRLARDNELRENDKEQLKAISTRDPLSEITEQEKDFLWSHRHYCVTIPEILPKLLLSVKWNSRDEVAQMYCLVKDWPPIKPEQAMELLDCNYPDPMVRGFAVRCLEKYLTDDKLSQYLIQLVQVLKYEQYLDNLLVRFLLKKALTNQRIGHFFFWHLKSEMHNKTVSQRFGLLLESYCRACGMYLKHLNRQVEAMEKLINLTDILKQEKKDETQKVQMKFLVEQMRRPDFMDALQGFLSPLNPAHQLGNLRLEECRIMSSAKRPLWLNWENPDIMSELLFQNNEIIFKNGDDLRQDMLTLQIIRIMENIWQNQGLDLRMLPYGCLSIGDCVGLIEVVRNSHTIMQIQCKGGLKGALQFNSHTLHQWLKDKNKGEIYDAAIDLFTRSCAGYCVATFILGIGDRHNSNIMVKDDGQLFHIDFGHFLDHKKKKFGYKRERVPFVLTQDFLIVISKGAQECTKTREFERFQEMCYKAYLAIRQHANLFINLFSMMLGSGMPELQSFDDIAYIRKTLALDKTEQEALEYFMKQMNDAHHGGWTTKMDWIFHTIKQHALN
T1 sequence (P27986 whole entry partner): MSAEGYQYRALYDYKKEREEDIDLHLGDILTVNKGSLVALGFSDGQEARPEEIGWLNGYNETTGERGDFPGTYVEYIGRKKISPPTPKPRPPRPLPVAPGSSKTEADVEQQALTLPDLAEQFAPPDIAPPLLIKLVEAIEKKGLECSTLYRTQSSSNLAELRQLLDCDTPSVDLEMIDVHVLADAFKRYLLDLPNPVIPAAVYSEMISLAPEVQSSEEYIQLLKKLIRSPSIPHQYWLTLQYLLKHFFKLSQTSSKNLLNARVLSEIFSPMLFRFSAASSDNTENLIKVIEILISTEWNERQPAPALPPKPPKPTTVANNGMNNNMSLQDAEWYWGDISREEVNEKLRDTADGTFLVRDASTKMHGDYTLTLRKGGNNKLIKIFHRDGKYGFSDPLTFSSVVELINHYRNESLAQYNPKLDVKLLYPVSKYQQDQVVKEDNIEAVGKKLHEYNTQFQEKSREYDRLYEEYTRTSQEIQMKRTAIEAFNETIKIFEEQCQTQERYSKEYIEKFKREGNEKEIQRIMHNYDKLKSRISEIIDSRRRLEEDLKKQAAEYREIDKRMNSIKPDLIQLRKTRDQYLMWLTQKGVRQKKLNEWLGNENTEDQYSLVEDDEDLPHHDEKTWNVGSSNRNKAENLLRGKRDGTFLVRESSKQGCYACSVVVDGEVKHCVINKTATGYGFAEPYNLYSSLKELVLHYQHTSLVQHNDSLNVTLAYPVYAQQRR

How did the IC50 turn out when `CC1COCCN1c1nc(Oc2ccc(C(=O)N(C)C)cc2)nc(-c2cccc3[nH]ncc23)n1` (centres unmarked) [Compound 1098, 4-9-{[4-1-(1H-indazol-4-yl)-6-5-(3-28-methylmorpholin-4-yl)-1,3,5-triazin-2-yl]oxy}-N,N-dimethylbenzamide] was run?
Its IC50 is less than 5 µM.

`CN(C)C(=O)[C@H]1C[C@H](Oc2nc(-c3cccc4[nH]ncc34)nc(N3CCOCC3)n2)CN1C` [Compound 1099, (2R,4S)-4-14-{[4-1-(1H-indazol-4-yl)-6-5-(morpholin-4-yl)-1,3,5-triazin-2-yl]oxy}-N,N,1-trimethylpyrrolidine-2-carboxamide] was tested. Which IC50 did it give?
Its IC50 is less than 5 µM.

With `CNC(=O)C(=O)Nc1ccc(Oc2nc(-c3cccc4[nH]ncc34)nc(N3CCOCC3)n2)cc1` [Compound 1100, N-(4-14-{[4-1-(1H-indazol-4-yl)-6-5-(morpholin-4-yl)-1,3,5-triazin-2-yl]oxy}phenyl)-N′-methylethanediamide] as the compound, how does the IC50 read?
Its IC50 is less than 5 µM.

`CN(C)C(=O)C(=O)Nc1ccc(Oc2nc(-c3cccc4[nH]ncc34)nc(N3CCOCC3)n2)cc1` [Compound 1101, N-(4-14-{[4-1-(1H-indazol-4-yl)-6-5-(morpholin-4-yl)-1,3,5-triazin-2-yl]oxy}phenyl)-N′,N′-dimethylethanediamide] was tested. Which IC50 did it give?
The IC50 was less than 5 µM.

With `CS(=O)(=O)N1CCC(Oc2nc(-c3cccc4[nH]ncc34)nc(N3CCOCC3)n2)CC1` [Compound 1102, 4-7-{4-3-[(1-25-methanesulfonylpiperidin-4-yl)oxy]-6-5-(morpholin-4-yl)-1,3,5-triazin-2-yl}-1H-indazole] as the compound, how does the IC50 read?
The IC50 was less than 5 µM.

`CN(C)C(=O)[C@H]1C[C@H](Oc2nc(-c3cccc4[nH]ncc34)nc(N3CCOCC3)n2)CN1` [Compound 1103, (2R,4S)-4-14-{[4-1-(1H-indazol-4-yl)-6-5-(morpholin-4-yl)-1,3,5-triazin-2-yl]oxy}-N,N-dimethylpyrrolidine-2-carboxamide] was tested. Which IC50 did it give?
Its IC50 is less than 5 µM.

Which IC50 does the source give for `CN(C)C(=O)CCNc1nc(-c2ccc(N)nc2)nc(N2CCOCC2)n1` [Compound 1104, 3-((4-(6-aminopyridin-3-yl)-6-morpholino-1,3,5-triazin-2-yl)amino)-N,N-dimethylpropanamide] here?
The IC50 was less than 5 µM.

How did the IC50 turn out when `Oc1ccc(-c2nc(N3CCNCC3)nc(N3CCOCC3)n2)cn1` [Compound 1105, 5-12-[4-5-(morpholin-4-yl)-6-3-(piperazin-1-yl)-1,3,5-triazin-2-yl]pyridin-2-ol] was run?
Its IC50 is less than 5 µM.

How did the IC50 turn out when `CN(C)C(=O)Nc1ccc(Oc2nc(-c3cccc4[nH]ncc34)nc(N3CCOCC3)n2)cc1` [Compound 1106, 1-(4-14-{[4-1-(1H-indazol-4-yl)-6-5-(morpholin-4-yl)-1,3,5-triazin-2-yl]oxy}phenyl)-3,3-dimethylurea] was run?
The IC50 was less than 5 µM.

`CC(C)C(=O)Nc1ccc(Oc2nc(-c3cccc4[nH]ncc34)nc(N3CCOCC3)n2)cc1` [Compound 1107, N-(4-14-{[4-1-(1H-indazol-4-yl)-6-5-(morpholin-4-yl)-1,3,5-triazin-2-yl]oxy}phenyl)-2-30-methylpropanamide] was tested. Which IC50 did it give?
The IC50 was less than 5 µM.

How did the IC50 turn out when `CN(C)C(=O)N1CCC(Oc2nc(-c3cccc4[nH]ncc34)nc(N3CCOCC3)n2)C1` (centres unmarked) [Compound 1108, 3-14-{[4-1-(1H-indazol-4-yl)-6-5-(morpholin-4-yl)-1,3,5-triazin-2-yl]oxy}-N,N-dimethylpyrrolidine-1-carboxamide] was run?
Its IC50 is less than 5 µM.

With `CN(C)C(=O)N1CCC(COc2nc(-c3cccc4[nH]ncc34)nc(N3CCOCC3)n2)C1` (centres unmarked) [Compound 1109, 3-22-({[4-1-(1H-indazol-4-yl)-6-5-(morpholin-4-yl)-1,3,5-triazin-2-yl]oxy}methyl)-N,N-dimethylpyrrolidine-1-carboxamide] as the compound, how does the IC50 read?
The IC50 was less than 5 µM.

How did the IC50 turn out when `CN(C)C(=O)c1ccc(COc2nc(-c3cccc4[nH]ncc34)nc(N3CCOCC3)n2)cc1` [Compound 1110, 4-23-({[4-1-(1H-indazol-4-yl)-6-5-(morpholin-4-yl)-1,3,5-triazin-2-yl]oxy}methyl)-N,N-dimethylbenzamide] was run?
The IC50 was less than 5 µM.

Which IC50 does the source give for `CN(C)C(=O)c1cccc(Nc2nc(-c3cccc4[nH]ncc34)nc(N3CCNC(=O)C3)n2)c1` [Compound 1111, 3-((4-(1H-indazol-4-yl)-6-(3-oxopiperazin-1-yl)-1,3,5-triazin-2-yl)amino)-N,N-dimethylbenzamide] here?
Its IC50 is greater than 5 µM.

Which IC50 does the source give for `CN(C)C(=O)c1ccc(Oc2nc(-c3cccc4[nH]ncc34)nc(N3CCOCC3)n2)cc1` [Compound 1114, 4-14-{[4-1-(1H-indazol-4-yl)-6-5-(morpholin-4-yl)-1,3,5-triazin-2-yl]oxy}-N,N-dimethylbenzamide] here?
Its IC50 is less than 5 µM.

`c1ccc(CN2CCC(Oc3nc(-c4cccc5[nH]ncc45)nc(N4CCOCC4)n3)CC2)cc1` [Compound 1115, 4-(4-((1-benzylpiperidin-4-yl)oxy)-6-(1H-indazol-4-yl)-1,3,5-triazin-2-yl)morpholine] was tested. Which IC50 did it give?
Its IC50 is less than 5 µM.

With `CC(C)(C)OC(=O)N1CCC(NC(=O)c2cccc(Nc3nc(-c4cccc5[nH]ncc45)nc(N4CCOCC4)n3)c2)CC1` [Compound 1116, tert-butyl 4-(3-((4-(1H-indazol-4-yl)-6-morpholino-1,3,5-triazin-2-yl)amino)benzamido)piperidine-1-carboxylate] as the compound, how does the IC50 read?
The IC50 was less than 5 µM.

`O=C1CCN(C(=O)c2cccc(Nc3nc(-c4cccc5[nH]ncc45)nc(N4CCOCC4)n3)c2)CCN1` [Compound 1117, 1-(3-((4-(1H-indazol-4-yl)-6-morpholino-1,3,5-triazin-2-yl)amino)benzoyl)-1,4-diazepan-5-one] was tested. Which IC50 did it give?
Its IC50 is less than 5 µM.

With `O=C(O)C(Cc1ccccc1)Nc1nc(-c2cccc(O)c2)nc(N2CCOCC2)n1` (centres unmarked) [Compound 1118, 2-((4-(3-hydroxyphenyl)-6-morpholino-1,3,5-triazin-2-yl)amino)-3-phenylpropanoic acid] as the compound, how does the IC50 read?
Its IC50 is less than 5 µM.

Which IC50 does the source give for `CN(C)Cc1ccc(Oc2nc(-c3cccc4[nH]ncc34)nc(N3CCOCC3)n2)cc1` [Compound 1119, 1-(4-((4-(1H-indazol-4-yl)-6-morpholino-1,3,5-triazin-2-yl)oxy)phenyl)-N,N-dimethylmethanamine] here?
Its IC50 is less than 5 µM.

`CS(=O)(=O)N1CCN(C(=O)CNc2nc(-c3ccc(N)cc3)nc(N3CCOCC3)n2)CC1` [Compound 1120, 2-((4-(4-aminophenyl)-6-morpholino-1,3,5-triazin-2-yl)amino)-1-(4-(methylsulfonyl)piperazin-1-yl)ethanone] was tested. Which IC50 did it give?
Its IC50 is greater than 5 µM.

Which IC50 does the source give for `CC(=O)Nc1cccc(-c2nc(N3CCOCC3)nc(N(CC(=O)O)C(C)=O)n2)c1` [Compound 1121, 2-9-{N-[4-1-(3-14-acetamidophenyl)-6-5-(morpholin-4-yl)-1,3,5-triazin-2-yl]acetamido}acetic acid] here?
The IC50 was greater than 5 µM.

How did the IC50 turn out when `CN(C)C(=O)CNc1nc(-c2cccc(C(N)=O)c2)nc(N2CCOCC2)n1` [Compound 1122, 3-12-(4-0-{[(dimethylcarbamoyl)methyl]amino}-6-4-(morpholin-4-yl)-1,3,5-triazin-2-yl)benzamide] was run?
The IC50 was greater than 5 µM.

`CNC(=O)C(=O)N[C@H]1CC[C@H](Oc2nc(-c3cccc4[nH]ncc34)nc(N3CCOCC3)n2)CC1` [Compound 1124, N-methyl-N′-[(1r,4r)-4-9-{[4-1-(1H-indazol-4-yl)-6-5-(morpholin-4-yl)-1,3,5-triazin-2-yl]oxy}cyclohexyl]ethanediamide] was tested. Which IC50 did it give?
The IC50 was less than 5 µM.

For `CN(C)C(=O)C(=O)N[C@H]1CC[C@H](Oc2nc(-c3cccc4[nH]ncc34)nc(N3CCOCC3)n2)CC1` [Compound 1125, N,N-dimethyl-N′-[(1r,4r)-4-9-{[4-1-(1H-indazol-4-yl)-6-5-(morpholin-4-yl)-1,3,5-triazin-2-yl]oxy}cyclohexyl]ethanediamide], which IC50 is on record?
Its IC50 is less than 5 µM.

For `Fc1ccc(-c2nc(N3CCNCC3)nc(N3CCOCC3)n2)cn1` [Compound 1127, 2-1-(6-16-fluoropyridin-3-yl)-4-5-(morpholin-4-yl)-6-3-(piperazin-1-yl)-1,3,5-triazine], which IC50 is on record?
The IC50 was less than 5 µM.

For `COc1cccc(-c2nc(N)nc(N3CCOCC3)n2)c1` [Compound 1128, 4-4-(3-13-methoxyphenyl)-6-0-(morpholin-4-yl)-1,3,5-triazin-2-amine], which IC50 is on record?
Its IC50 is greater than 5 µM.

Which IC50 does the source give for `O=C(Nc1ccccn1)c1cccc(Nc2nc(-c3cccc4[nH]ncc34)nc(N3CCOCC3)n2)c1` [Compound 1129, 3-((4-(1H-indazol-4-yl)-6-morpholino-1,3,5-triazin-2-yl)amino)-N-(pyridin-2-yl)benzamide] here?
Its IC50 is less than 5 µM.

Which IC50 does the source give for `CS(=O)(=O)N1CCN(C(=O)c2cccc(Nc3nc(-c4cccc5[nH]ncc45)nc(N4CCOCC4)n3)c2)CC1` [Compound 1130, (3-((4-(1H-indazol-4-yl)-6-morpholino-1,3,5-triazin-2-yl)amino)phenyl)(4-(methylsulfonyl)piperazin-1-yl)methanone] here?
Its IC50 is less than 5 µM.

`N#Cc1cccc(Oc2nc(-c3cccc4[nH]ncc34)nc(N3CCOCC3)n2)c1` [Compound 1131, 3-22-{[4-1-(1H-indazol-4-yl)-6-5-(morpholin-4-yl)-1,3,5-triazin-2-yl]oxy}benzonitrile] was tested. Which IC50 did it give?
Its IC50 is greater than 5 µM.

Which IC50 does the source give for `CN(C)C(=O)c1sccc1Nc1nc(-c2cccc3[nH]ncc23)nc(N2CCOCC2)n1` [Compound 1132, 3-((4-(1H-indazol-4-yl)-6-morpholino-1,3,5-triazin-2-yl)amino)-N,N-dimethylthiophene-2-carboxamide] here?
The IC50 was less than 5 µM.

For `CN(C)C(=O)[C@@H]1CCC[C@@H](Oc2nc(-c3cccc4[nH]ncc34)nc(N3CCOCC3)n2)C1` [Compound 1133, (1R,3R)-3-14-{[4-1-(1H-indazol-4-yl)-6-5-(morpholin-4-yl)-1,3,5-triazin-2-yl]oxy}-N,N-dimethylcyclohexane-1-carboxamide], which IC50 is on record?
Its IC50 is less than 5 µM.

Which IC50 does the source give for `Nc1ccc(-c2nc(N3CCNCC3)nc(N3CCOCC3)n2)cn1` [Compound 1134, 5-18-[4-5-(morpholin-4-yl)-6-3-(piperazin-1-yl)-1,3,5-triazin-2-yl]pyridin-2-amine] here?
Its IC50 is less than 5 µM.

Which IC50 does the source give for `NC(=O)CNc1nc(-c2cccc(C(N)=O)c2)nc(N2CCOCC2)n1` [Compound 1135, 3-6-{4-1-[(carbamoylmethyl)amino]-6-2-(morpholin-4-yl)-1,3,5-triazin-2-yl}benzamide] here?
Its IC50 is greater than 5 µM.

With `CSCCC(Nc1nc(-c2cccc(O)c2)nc(N2CCOCC2)n1)C(=O)O` (centres unmarked) [Compound 1136, 2-((4-(3-hydroxyphenyl)-6-morpholino-1,3,5-triazin-2-yl)amino)-4-(methylthio)butanoic acid] as the compound, how does the IC50 read?
The IC50 was less than 5 µM.
